Results reported in US20250367166A1, “NEXT GENERATION DIPROVOCIMS THAT ACTIVATE THE INNATE AND ADAPTIVE IMMUNE RESPONSE” (The Scripps Research Institute, priority 2022, published 2025).
Where two headings read alike, the source gives them in different places.

Legend:
TLR1/TLR2 [1] = target: TLR1/TLR2 (Homo sapiens, UniProt O60603+Q15399); assay: TNF-α release from PMA-differentiated human THP-1 cells (ELISA); settings: for Emax: THP-1, 4 h, read-out: Efficacy (magnitude) of response versus diprovocim-1 (100%), THP-1; for EC50: read-out: EC50 (nM) (THP-1): EC50 TNF-α release from human THP-1 cells;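 for all read-outs here: cells exposed to graded compound concentrations for 4 h, TNF-α quantified in supernatant, LPS as positive and DMSO as negative control, values are duplicate means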
TLR1/TLR2 [2] = target: TLR1/TLR2 (Mus musculus, UniProt Q9EPQ1+Q9QUN7); assay: TNF-α release from thioglycolate-elicited mouse peritoneal macrophages (ELISA); settings: for Emax: 4 h, read-out: Efficacy (magnitude) of response versus diprovocim-1 (100%), mouse macrophages; for EC50: read-out: EC50 (nM) (mouse): EC50 TNF-α release from mouse macrophages
Chain of TLR1/TLR2 (Mus musculus, UniProt Q9EPQ1+Q9QUN7) (Q9EPQ1 26-795): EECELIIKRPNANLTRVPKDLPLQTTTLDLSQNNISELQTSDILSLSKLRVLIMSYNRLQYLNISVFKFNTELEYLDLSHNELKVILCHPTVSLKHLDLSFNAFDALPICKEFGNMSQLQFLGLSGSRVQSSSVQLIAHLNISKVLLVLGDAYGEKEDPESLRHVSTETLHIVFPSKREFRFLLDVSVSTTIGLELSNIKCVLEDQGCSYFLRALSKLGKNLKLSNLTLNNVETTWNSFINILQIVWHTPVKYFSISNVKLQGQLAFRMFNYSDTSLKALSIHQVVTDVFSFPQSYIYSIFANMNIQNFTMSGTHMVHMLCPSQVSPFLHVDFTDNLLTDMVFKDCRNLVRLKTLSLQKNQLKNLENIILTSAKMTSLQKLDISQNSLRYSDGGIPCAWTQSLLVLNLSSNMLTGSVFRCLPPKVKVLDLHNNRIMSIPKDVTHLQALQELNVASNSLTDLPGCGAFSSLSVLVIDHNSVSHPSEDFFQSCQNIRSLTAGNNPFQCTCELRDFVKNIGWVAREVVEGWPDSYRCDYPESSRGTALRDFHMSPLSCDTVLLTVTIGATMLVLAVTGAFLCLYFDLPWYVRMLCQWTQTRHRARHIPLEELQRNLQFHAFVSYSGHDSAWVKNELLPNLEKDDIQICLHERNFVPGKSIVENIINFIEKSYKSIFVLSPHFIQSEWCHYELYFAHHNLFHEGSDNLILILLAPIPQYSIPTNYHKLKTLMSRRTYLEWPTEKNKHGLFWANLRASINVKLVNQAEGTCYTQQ
Chain of TLR1/TLR2 (Mus musculus, UniProt Q9EPQ1+Q9QUN7) (Q9QUN7 25-784): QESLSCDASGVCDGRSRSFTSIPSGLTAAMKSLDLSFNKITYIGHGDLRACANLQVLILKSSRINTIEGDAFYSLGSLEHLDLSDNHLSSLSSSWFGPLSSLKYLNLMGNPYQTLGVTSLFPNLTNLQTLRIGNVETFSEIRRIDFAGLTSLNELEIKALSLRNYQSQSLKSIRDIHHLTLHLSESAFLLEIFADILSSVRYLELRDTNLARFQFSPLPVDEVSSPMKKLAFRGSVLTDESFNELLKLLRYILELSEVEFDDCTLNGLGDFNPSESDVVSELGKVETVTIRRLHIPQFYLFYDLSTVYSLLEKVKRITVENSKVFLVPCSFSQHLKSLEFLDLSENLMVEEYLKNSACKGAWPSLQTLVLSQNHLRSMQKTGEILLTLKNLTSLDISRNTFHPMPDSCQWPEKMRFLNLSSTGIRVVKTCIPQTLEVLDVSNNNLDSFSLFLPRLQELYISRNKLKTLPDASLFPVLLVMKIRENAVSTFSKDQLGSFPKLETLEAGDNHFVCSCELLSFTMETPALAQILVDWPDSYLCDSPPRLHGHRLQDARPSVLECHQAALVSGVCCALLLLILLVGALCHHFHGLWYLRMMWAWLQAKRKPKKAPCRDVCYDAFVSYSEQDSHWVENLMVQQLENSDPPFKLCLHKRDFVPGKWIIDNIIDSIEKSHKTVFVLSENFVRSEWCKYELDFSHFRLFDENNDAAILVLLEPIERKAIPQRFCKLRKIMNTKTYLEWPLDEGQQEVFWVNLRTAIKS
Description: Thioglycolate-elicited macrophages were recovered 4 days after i.p. injection of 2 mL BBL thioglycolate medium, brewer modified (4%; BD Biosciences) by peritoneal lavage with 5 mL phosphate buffered saline (PBS). […] Cells were seeded onto 96-well plates at 1×10^3 cells per well and treated with systematically varied concentrations of the candidate compounds (dissolved in DMSO, and final assay DMSO concentrations (0.5%) were kept constant in all experiments) for 4 h. Ultra-pure LPS (dissolved in H2O, Enzo Life Sciences) was assessed alongside the compounds as a positive control and DMSO treated controls. […] Mouse TNF-α in the supernatants was measured by ELISA kits according to the manufacturer's instructions (eBioscience). EC50's were calculated by Graphpad Prism. All data is mean of duplicates and SD is within ±10% of mean. Mouse cells were from wild type C57BL/6J mice.

Chain of TLR1/TLR2 (Homo sapiens, UniProt O60603+Q15399) (Q15399 25-786): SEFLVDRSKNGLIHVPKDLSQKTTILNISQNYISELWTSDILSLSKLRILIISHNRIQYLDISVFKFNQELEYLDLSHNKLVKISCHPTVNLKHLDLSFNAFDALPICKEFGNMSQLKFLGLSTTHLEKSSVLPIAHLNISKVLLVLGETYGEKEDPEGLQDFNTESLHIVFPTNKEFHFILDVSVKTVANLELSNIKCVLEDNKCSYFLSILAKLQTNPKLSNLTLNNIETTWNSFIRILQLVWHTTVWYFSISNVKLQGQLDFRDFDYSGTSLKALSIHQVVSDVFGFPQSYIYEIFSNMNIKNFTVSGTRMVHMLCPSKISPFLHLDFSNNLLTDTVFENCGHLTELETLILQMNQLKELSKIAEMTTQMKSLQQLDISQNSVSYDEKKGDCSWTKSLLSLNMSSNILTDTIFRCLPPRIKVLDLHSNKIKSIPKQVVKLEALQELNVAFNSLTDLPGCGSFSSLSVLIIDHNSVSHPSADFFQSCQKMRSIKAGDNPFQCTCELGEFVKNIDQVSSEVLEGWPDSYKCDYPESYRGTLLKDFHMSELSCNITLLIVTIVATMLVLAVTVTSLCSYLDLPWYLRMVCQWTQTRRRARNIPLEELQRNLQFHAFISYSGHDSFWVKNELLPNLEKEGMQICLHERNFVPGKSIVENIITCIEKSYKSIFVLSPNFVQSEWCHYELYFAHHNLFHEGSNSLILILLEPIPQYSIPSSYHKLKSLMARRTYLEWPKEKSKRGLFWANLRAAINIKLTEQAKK
Chain of TLR1/TLR2 (Homo sapiens, UniProt O60603+Q15399) (O60603 21-784): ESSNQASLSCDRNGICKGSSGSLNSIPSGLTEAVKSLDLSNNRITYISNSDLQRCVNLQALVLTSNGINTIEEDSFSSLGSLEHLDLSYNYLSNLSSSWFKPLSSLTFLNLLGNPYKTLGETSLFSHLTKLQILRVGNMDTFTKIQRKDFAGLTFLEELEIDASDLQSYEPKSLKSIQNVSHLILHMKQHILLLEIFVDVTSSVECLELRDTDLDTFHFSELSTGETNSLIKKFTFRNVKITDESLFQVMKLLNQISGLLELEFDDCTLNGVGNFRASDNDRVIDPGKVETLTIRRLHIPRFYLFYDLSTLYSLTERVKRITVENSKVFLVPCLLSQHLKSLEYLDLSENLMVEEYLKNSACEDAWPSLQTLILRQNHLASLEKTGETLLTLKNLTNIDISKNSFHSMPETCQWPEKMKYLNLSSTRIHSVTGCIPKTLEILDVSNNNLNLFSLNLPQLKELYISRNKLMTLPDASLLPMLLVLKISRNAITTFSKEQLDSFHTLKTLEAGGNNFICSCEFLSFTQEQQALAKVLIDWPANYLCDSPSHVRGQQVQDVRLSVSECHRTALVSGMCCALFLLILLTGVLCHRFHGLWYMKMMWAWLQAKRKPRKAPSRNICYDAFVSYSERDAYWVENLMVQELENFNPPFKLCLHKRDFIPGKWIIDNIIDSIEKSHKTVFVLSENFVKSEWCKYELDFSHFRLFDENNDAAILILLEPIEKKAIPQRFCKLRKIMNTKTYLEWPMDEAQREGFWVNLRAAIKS

Row | Compound | Emax (TLR1/TLR2 [1]) | EC50 (TLR1/TLR2 [1]; Table 5) | Emax (TLR1/TLR2 [2]) | EC50 (TLR1/TLR2 [2]; Table 5) | EC50 (TLR1/TLR2 [1]; Table 6) | EC50 (TLR1/TLR2 [2]; Table 6) | EC50 (TLR1/TLR2 [1]; Table 1) | EC50 (TLR1/TLR2 [2]; Table 1) | EC50 (TLR1/TLR2 [1]; Table 3) | EC50 (TLR1/TLR2 [2]; Table 3)
1 | CC(C)(C)OC(=O)NCC(=O)NCC(=O)OCCCCCCCCCCCCNC(=O)[C@@H]1CN(C(=O)c2ccc(C(=O)N3C[C@@H](C(=O)N[C@H]4C[C@@H]4c4ccccc4)[C@H](C(=O)N[C@H]4C[C@@H]4c4ccccc4)C3)cc2)C[C@H]1C(=O)N[C@H]1C[C@@H]1c1ccccc1 [Compound 72, 12-((3S,4S)-1-(4-((3S,4S)-3,4-Bis(((1S,2R)-2-phenyl-cyclopropyl)carbamoyl)pyrrolidine-1-carbonyl)benzoyl)-4-(((1S,2R)-2-phenylcyclopropyl)carbamoyl)pyrrolidine-3-carboxamido)-dodecyl 2-(2-((tert-butoxycarbonyl)amino)acetamido)acetate] | 110% | 0.52 nM | 110% | 2.5 nM | – | – | – | – | – | –
2 | O=C(O)c1ccc(C(=O)NCCOCCCCCCCCCCCCNC(=O)[C@@H]2CN(C(=O)c3ccc(C(=O)N4C[C@@H](C(=O)N[C@H]5C[C@@H]5c5ccccc5)[C@H](C(=O)N[C@H]5C[C@@H]5c5ccccc5)C4)cc3)C[C@H]2C(=O)N[C@H]2C[C@@H]2c2ccccc2)cc1 [Compound 86, 4-((2-((12-((3S,4S)-1-(4-((3S,4S)-3,4-Bis(((1S,2R)-2-phenylcyclopropyl)carbamoyl)pyrrolidine-1-carbonyl)benzoyl)-4-(((1S,2R)-2-phenylcyclopropyl)-carbamoyl)pyrrolidine-3-carboxamido)dodecyl)-oxy)ethyl)carbamoyl)benzoic acid] | 100% | – | 50% | – | 2.9 nM | 49 nM | – | – | – | –
3 | O=C(NCCCCCCCCc1ccc(O)cc1)[C@@H]1CN(C(=O)c2ccc(C(=O)N3C[C@@H](C(=O)N[C@H]4C[C@@H]4c4ccccc4)[C@H](C(=O)N[C@H]4C[C@@H]4c4ccccc4)C3)cc2)C[C@H]1C(=O)N[C@H]1C[C@@H]1c1ccccc1 [Compound 26, (3S,4S)-1-(4-((3S,4S)-3,4-Bis(((1S,2R)-2-phenylcyclo-propyl)carbamoyl)pyrrolidine-1-carbonyl)-benzoyl)-N^3-(8-(4-hydroxyphenyl)octyl)-N^4-((1S,2R)-2-phenylcyclo-propyl)pyrrolidine-3,4-dicarboxamide] | 90% | – | 380% | – | – | – | 0.15 nM | 2.6 nM | – | –
4 | O=C(O)c1ccc(C(=O)OCCCCCCCCCCCCNC(=O)[C@@H]2CN(C(=O)c3ccc(C(=O)N4C[C@@H](C(=O)N[C@H]5C[C@@H]5c5ccccc5)[C@H](C(=O)N[C@H]5C[C@@H]5c5ccccc5)C4)cc3)C[C@H]2C(=O)N[C@H]2C[C@@H]2c2ccccc2)cc1 [Compound 78, 4-(((12-((3S,4S)-1-(4-((3S,4S)-3,4-Bis(((1S,2R)-2-phenylcyclopropyl)carbamoyl)pyrrolidine-1-carbonyl)benzoyl)-4-(((1S,2R)-2-phenylcyclopropyl)-carbamoyl)pyrrolidine-3-carboxamido)-dodecyl)oxy)carbonyl)benzoic acid] | 100% | – | 120% | – | 0.69 nM | 2.1 nM | – | – | – | –
5 | O=C(NCCCCCCO)[C@@H]1CN(C(=O)c2ccc(C(=O)N3C[C@@H](C(=O)N[C@H]4C[C@@H]4c4ccccc4)[C@H](C(=O)N[C@H]4C[C@@H]4c4ccccc4)C3)cc2)C[C@H]1C(=O)N[C@H]1C[C@@H]1c1ccccc1 [Compound 10, (3S,4S)-1-(4-((3S,4S)-3,4-Bis(((1S,2R)-2-phenyl-cyclo-propyl)carbamoyl)pyrrolidine-1-carbonyl)-benzoyl)-N^3-(6-hydroxyhexyl)-N^4-((1S,2R)-2-phenyl-cyclopropyl)-pyrrolidine-3,4-dicarboxamide] | – | – | – | – | – | – | 90 nM | 180 nM | – | –
6 | CC(C)(C)OC(=O)N1CCC[C@H]1C(=O)OCCCCCCCCCCCCNC(=O)[C@@H]1CN(C(=O)c2ccc(C(=O)N3C[C@@H](C(=O)N[C@H]4C[C@@H]4c4ccccc4)[C@H](C(=O)N[C@H]4C[C@@H]4c4ccccc4)C3)cc2)C[C@H]1C(=O)N[C@H]1C[C@@H]1c1ccccc1 [Compound 60, (S)-2-(12-((3S,4S)-1-(4-((3S,4S)-3,4-Bis(((1S,2R)-2-phenylcyclopropyl)carbamoyl)pyrrolidine-1-carbonyl)-benzoyl)-4-(((1S,2R)-2-phenylcyclopropyl)carbamoyl)-pyrrolidine-3-carboxamido)-dodecyl) 1-tert-butyl pyrrolidine-1,2-dicarboxylate] | 90% | 0.94 nM | 100% | 9.2 nM | – | – | – | – | – | –
7 | CC(C)(C)OC(=O)NCCCCCCCCCCCCNC(=O)[C@@H]1CN(C(=O)c2ccc(C(=O)N3C[C@@H](C(=O)N[C@H]4C[C@@H]4c4ccccc4)[C@H](C(=O)N[C@H]4C[C@@H]4c4ccccc4)C3)cc2)C[C@H]1C(=O)N[C@H]1C[C@@H]1c1ccccc1 [Compound 17, tert-Butyl (12-((3S,4S)-1-(4-((3S,4S)-3,4-bis(((1S,2R)-2-phenylcyclopropyl)carbamoyl)-pyrrolidine-1-carbonyl)benzoyl)-4-(((1S,2R)-2-phenylcyclopropyl)carbamoyl)pyrrolidine-3-carboxamido)dodecyl)carbamate] | 70% | – | 120% | – | – | – | 0.18 nM | 2.8 nM | – | –
8 | Nc1ccc(COCCCCCCCCCCCCNC(=O)[C@@H]2CN(C(=O)c3ccc(C(=O)N4C[C@@H](C(=O)N[C@H]5C[C@@H]5c5ccccc5)[C@H](C(=O)N[C@H]5C[C@@H]5c5ccccc5)C4)cc3)C[C@H]2C(=O)N[C@H]2C[C@@H]2c2ccccc2)cc1 [Compound 52, (3S,4S)—N^3-(12-((4-Aminobenzyl)oxy)dodecyl)-1-(4-((3S,4S)-3,4-bis(((1S,2R)-2-phenyl-cyclopropyl)carbamoyl)pyrrolidine-1-carbonyl)-benzoyl)-N^4-((1S,2R)-2-phenylcyclopropyl)pyrrolidine-3,4-dicarboxamide] | 90% | – | 130% | – | – | – | – | – | 0.26 nM | 2 nM
9 | O=C(CNC(=O)C(=O)O)OCCCCCCCCCCCCNC(=O)[C@@H]1CN(C(=O)c2ccc(C(=O)N3C[C@@H](C(=O)N[C@H]4C[C@@H]4c4ccccc4)[C@H](C(=O)N[C@H]4C[C@@H]4c4ccccc4)C3)cc2)C[C@H]1C(=O)N[C@H]1C[C@@H]1c1ccccc1 [Compound 84, 2-((2-((12-((3S,4S)-1-(4-((3S,4S)-3,4-Bis(((1S,2R)-2-phenylcyclopropyl)carbamoyl)pyrrolidine-1-carbonyl)benzoyl)-4-(((1S,2R)-2-phenylcyclopropyl)carbamoyl)pyrrolidine-3-carboxamido)-dodecyl)oxy)-2-oxoethyl)amino)-2-oxoacetic acid] | 120% | – | 250% | – | 0.23 nM | 6.7 nM | – | – | – | –
10 | C#CCOCC(=O)OCCCCCCCCCCCCNC(=O)[C@@H]1CN(C(=O)c2ccc(C(=O)N3C[C@@H](C(=O)N[C@H]4C[C@@H]4c4ccccc4)[C@H](C(=O)N[C@H]4C[C@@H]4c4ccccc4)C3)cc2)C[C@H]1C(=O)N[C@H]1C[C@@H]1c1ccccc1 [Compound 54, 12-((3S,4S)-1-(4-((3S,4S)-3,4-Bis(((1S,2R)-2-phenylcyclopropyl)carbamoyl)pyrrolidine-1-carbonyl)benzoyl)-4-(((1S,2R)-2-phenylcyclopropyl)-carbamoyl)pyrrolidine-3-carboxamido)dodecyl 2-(prop-2-yn-1-yloxy)acetate] | 30% | – | 110% | – | – | – | – | – | 0.29 nM | 4.9 nM
11 | CC(C)(C)C(=O)NCC(=O)OCCCCCCCCCCCCNC(=O)[C@@H]1CN(C(=O)c2ccc(C(=O)N3C[C@@H](C(=O)N[C@H]4C[C@@H]4c4ccccc4)[C@H](C(=O)N[C@H]4C[C@@H]4c4ccccc4)C3)cc2)C[C@H]1C(=O)N[C@H]1C[C@@H]1c1ccccc1 [Compound 42, 12-((3S,4S)-1-(4-((3S,4S)-3,4-Bis(((1S,2R)-2-phenylcyclopropyl)carbamoyl)pyrrolidine-1-carbonyl)benzoyl)-4-(((1S,2R)-2-phenylcyclopropyl)carbamoyl)pyrrolidine-3-carboxamido)-dodecyl 2-pivalamidoacetate] | 110% | – | 110% | – | – | – | – | – | 1.8 nM | 6.2 nM
12 | CC(C)(C)OC(=O)N[C@@H](COCc1ccccc1)C(=O)OCCCCCCCCCCCCNC(=O)[C@@H]1CN(C(=O)c2ccc(C(=O)N3C[C@@H](C(=O)N[C@H]4C[C@@H]4c4ccccc4)[C@H](C(=O)N[C@H]4C[C@@H]4c4ccccc4)C3)cc2)C[C@H]1C(=O)N[C@H]1C[C@@H]1c1ccccc1 [Compound 64, (S)-12-((3S,4S)-1-(4-((3S,4S)-3,4-Bis(((1S,2R)-2-phenylcyclopropyl)carbamoyl)pyrrolidine-1-carbonyl)-benzoyl)-4-(((1S,2R)-2-phenylcyclopropyl)carbamoyl)-pyrrolidine-3-carboxamido)dodecyl 3-(benzyloxy)-2-((tert-butoxycarbonyl)amino)propanoate] | 100% | 0.15 nM | 370% | 30 nM | – | – | – | – | – | –
13 | COC(=O)CCCCCNC(=O)[C@@H]1CN(C(=O)c2ccc(C(=O)N3C[C@@H](C(=O)N[C@H]4C[C@@H]4c4ccccc4)[C@H](C(=O)N[C@H]4C[C@@H]4c4ccccc4)C3)cc2)C[C@H]1C(=O)N[C@H]1C[C@@H]1c1ccccc1 [Compound 6, Methyl 6-((3S,4S)-1-(4-((3S,4S)-3,4-bis(((1S,2R)-2-phenylcyclopropyl)carbamoyl)pyrrolidine-1-carbonyl)-benzoyl)-4-(((1S,2R)-2-phenylcyclopropyl)carbamoyl)-pyrrolidine-3-carboxamido)-hexanoate] | – | – | – | – | – | – | 45 nM | 1100 nM | – | –
